{"source": "patent US7666875B2", "about": "“Hydantoin compounds” (Eisai R&D Management Co., Ltd., priority 2005, dated 2010)"}
{"target": "T1, human T-bet (Homo sapiens, UniProt Q9UL17)", "T1 construct": "expressed in transfected cells; host or cells: engineered HEK cells (HEKT-bet)", "T1 sequence (Q9UL17 1-535)": "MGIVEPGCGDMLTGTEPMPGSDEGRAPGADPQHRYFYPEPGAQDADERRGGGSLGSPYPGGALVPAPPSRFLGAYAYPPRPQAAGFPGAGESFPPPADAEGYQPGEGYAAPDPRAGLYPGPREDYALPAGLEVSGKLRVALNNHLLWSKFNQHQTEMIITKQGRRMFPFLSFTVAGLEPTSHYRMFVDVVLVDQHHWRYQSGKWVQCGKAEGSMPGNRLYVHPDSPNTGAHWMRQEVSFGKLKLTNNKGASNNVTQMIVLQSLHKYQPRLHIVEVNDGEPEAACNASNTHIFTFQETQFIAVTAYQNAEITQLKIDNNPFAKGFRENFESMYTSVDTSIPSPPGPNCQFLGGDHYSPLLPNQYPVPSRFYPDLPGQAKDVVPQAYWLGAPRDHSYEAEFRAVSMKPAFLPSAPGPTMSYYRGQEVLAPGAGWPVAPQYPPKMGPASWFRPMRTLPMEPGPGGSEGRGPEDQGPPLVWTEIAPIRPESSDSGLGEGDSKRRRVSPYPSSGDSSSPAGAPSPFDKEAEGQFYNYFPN", "assay": "HEKT-bet-luc assay (T-bet dependent luciferase reporter in engineered HEK cells)", "type": "cell-based", "settings": "Table 4; HEKT-bet cells, compound 24 hours; IC50 normalized to reference ER-213038; read-out: IC50", "protocol": "HEKT-bet-luc assay: This assay measures a T-bet dependent reporter (luciferase) activity in engineered HEK cells that express a human T-bet and a T-box responsive element driving luciferase reporter. HEKT-bet cells were plated at 2×10^4/well in 96-well plate and compound was added into cell culture for 24 hours. Luciferase activity was measured by adding 50 μl of Steady-Glo reagent (Promega) and samples were read in Victor V reader (PerkinElmer). The IC50 values were calculated utilizing a maximum value corresponding to the amount of luciferase in the absence of a test compound and a minimum value corresponding to a test compound value obtained at maximum inhibition.\nDetermination of Normalized HEKT-bet IC50 values: Compounds were assayed in microtiter plates. Each plate included a reference compound which was ER-213038. The un-normalized IC50 value for a particular compound was divided by the IC50 value determined for the reference compound in the same microtiter plate to provide a relative potency value. The relative potency value was then multiplied by the established potency of the reference compound to provide the normalized HEKT-bet IC50 value. […] The IC50 values provided herein were obtained using this normalization method.", "units": {"IC50": "nM"}}
{"smiles": "COc1cccc(CN2C(=O)N(Cc3cccc(OC)c3)C3(CCN(Cc4cc(OC)cc(OC)c4)CC3)C2=O)c1", "note": "[Example 202]", "IC50": 290}
{"smiles": "COCCN1C(=O)N(Cc2cccc(OC)c2)C(=O)C12CCN(Cc1cccc(OC(F)(F)F)c1)CC2", "note": "[Example 203]", "IC50": 291}
{"smiles": "O=C1N(C/C=C/c2ccccc2)C(=O)C2(CCN(Cc3cccc4ccccc34)CC2)N1CCO", "note": "[Example 204]", "IC50": 298}
{"smiles": "COCCN1C(=O)N(C/C=C/c2cccc(C)c2)C(=O)C12CCN(Cc1ccccc1)CC2", "note": "[Example 205]", "IC50": 298}
{"smiles": "COCN1C(=O)N(C/C=C/c2ccccc2)C(=O)C12CCN(Cc1cccc3ccccc13)CC2", "note": "[Example 206]", "IC50": 311}
{"smiles": "COCCCN1C(=O)N(Cc2cc(OC)cc(OC)c2)C(=O)C12CCN(Cc1cc(OC)cc(OC)c1)CC2", "note": "[Example 207]", "IC50": 317}
{"smiles": "COCCN1C(=O)N(CCCOc2ccccc2)C(=O)C12CCN(Cc1cccc(C)c1)CC2", "note": "[Example 208]", "IC50": 317}
{"smiles": "COCCN1C(=O)N(Cc2cccc(OC)c2)C(=O)C12CCN(Cc1cc(-c3ccccc3)ccc1OC)CC2", "note": "[Example 209]", "IC50": 325}
{"smiles": "COCCN1C(=O)N(Cc2cccc(OC)c2)C(=O)C12CCN(Cc1cccc3c1OCO3)CC2", "note": "[Example 210]", "IC50": 333}
{"smiles": "COc1cccc(CN2C(=O)N(CCn3cccc3)C3(CCN(Cc4cccc5ccccc45)CC3)C2=O)c1", "note": "[Example 211]", "IC50": 334}
{"smiles": "COCCN1C(=O)N(Cc2cccc(OC)c2)C(=O)C12CCN(Cc1ccc(C)c(C)c1)CC2", "note": "[Example 212]", "IC50": 336}
{"smiles": "COCCN1C(=O)N(Cc2cccc(OC)c2)C(=O)C12CCN(Cc1ccc3ccccc3c1)CC2", "note": "[Example 213]", "IC50": 337}
{"smiles": "CCN1C(=O)N(Cc2ccc3ccccc3c2)C(=O)C12CCN(Cc1cccc(OC)c1)CC2", "note": "[Example 214]", "IC50": 344}
{"smiles": "COCCN1C(=O)N(Cc2cc(OC)ccc2OC)C(=O)C12CCN(Cc1cc(OC)cc(OC)c1)CC2", "note": "[Example 215]", "IC50": 348}
{"smiles": "COc1cccc(CN2C(=O)N(CCCO)C3(CCN(Cc4cccc5ccccc45)CC3)C2=O)c1", "note": "[Example 216]", "IC50": 349}
{"smiles": "CCN1C(=O)N(CCCOc2ccccc2)C(=O)C12CCN(Cc1cc(OC)cc(OC)c1)CC2", "note": "[Example 217]", "IC50": 350}
{"smiles": "COCCN1C(=O)N(Cc2cccc(OC)c2)C(=O)C12CCN(Cc1cccc(-c3ccncc3)c1)CC2", "note": "[Example 218]", "IC50": 351}
{"smiles": "COCCN1C(=O)N(Cc2cccc(OC)c2)C(=O)C12CCN(Cc1ccc(OC)c(OC)c1C)CC2", "note": "[Example 219]", "IC50": 362}
{"smiles": "COCCN1C(=O)N(CCCOc2ccccc2)C(=O)C12CCN(Cc1cccc(OC)c1)CC2", "note": "[Example 220]", "IC50": 362}
{"smiles": "CCN1C(=O)N(CCCc2ccccc2)C(=O)C12CCN(Cc1cc(OC)cc(OC)c1)CC2", "note": "[Example 221]", "IC50": 365}
{"smiles": "COCCN1C(=O)N(CCCc2ccccc2OC)C(=O)C12CCN(Cc1ccccc1)CC2", "note": "[Example 222]", "IC50": 366}
{"smiles": "O=C1N(C/C=C/c2ccccc2)C(=O)C2(CCN(Cc3cccc4ccccc34)CC2)N1Cc1ccncc1", "note": "[Example 223]", "IC50": 371}
{"smiles": "COCCN1C(=O)N(Cc2cccc(OC)c2)C(=O)C12CCN(Cc1cccc(-c3ccc(S(C)(=O)=O)cc3)c1)CC2", "note": "[Example 224]", "IC50": 371}
{"smiles": "COCCN1C(=O)N(Cc2cccc(OC)c2)C(=O)C12CCN(Cc1cccc(N3CCCCC3)c1)CC2", "note": "[Example 225]", "IC50": 373}
{"smiles": "COCCN1C(=O)N(C/C=C/c2ccccc2C)C(=O)C12CCN(Cc1ccccc1)CC2", "note": "[Example 226]", "IC50": 373}
{"smiles": "COCCN1C(=O)N(Cc2cccc(OC)c2)C(=O)C12CCN(Cc1cc3ccccc3nc1Cl)CC2", "note": "[Example 227]", "IC50": 373}
{"smiles": "COCCN1C(=O)N(Cc2cccc(OC)c2)C(=O)C12CCN(Cc1ccc(C)cc1C)CC2", "note": "[Example 228]", "IC50": 374}
{"smiles": "COc1cccc(CN2C(=O)N(Cc3cccc(-n4cccc4)c3)C3(CCN(Cc4cccc5ccccc45)CC3)C2=O)c1", "note": "[Example 229]", "IC50": 377}
{"smiles": "COCCN1C(=O)N(Cc2cccc(OC)c2)C(=O)C12CCN(Cc1cccc(N3CCOCC3)c1)CC2", "note": "[Example 230]", "IC50": 379}
{"smiles": "COc1cccc(CN2C(=O)N(Cc3ccc4c(c3)nnn4C)C3(CCN(Cc4cccc5ccccc45)CC3)C2=O)c1", "note": "[Example 231]", "IC50": 385}
